According to ChEMBL document CHEMBL4308841, “Synthesis, in vitro antiproliferative activity, and kinase inhibitory effects of pyrazole-containing diarylureas and diarylamides” (Eur J Med Chem, 2018):

What was measured:
[1] = system: CCRF-CEM; assay: Growth inhibition of human CCRF-CEM cells incubated for 48 hrs by sulforhodamine B assay; format: functional, cell-based
[2] = system: K562; assay: Growth inhibition of human K562 cells incubated for 48 hrs by sulforhodamine B assay; format: functional, cell-based; details: K562, 48 h
[3] = system: NCI-H460; assay: Growth inhibition of human NCI-H460 cells incubated for 48 hrs by sulforhodamine B assay; format: functional, cell-based; details: NCI-H460, 48 h
[4] = system: KM12; assay: Growth inhibition of human KM12 cells incubated for 48 hrs by sulforhodamine B assay; format: functional, cell-based; details: KM12, 48 h
[5] = system: Malme-3M; assay: Growth inhibition of human MALME-3M cells incubated for 48 hrs by sulforhodamine B assay; format: functional, cell-based
[6] = system: UACC-62; assay: Growth inhibition of human UACC62 cells incubated for 48 hrs by sulforhodamine B assay; format: functional, cell-based; details: UACC-62, 48 h
[7] = system: PC-3; assay: Growth inhibition of human PC3 cells incubated for 48 hrs by sulforhodamine B assay; format: functional, cell-based; details: PC-3, 48 h
[8] = system: OVCAR-4; assay: Growth inhibition of human OVCAR4 cells assessed as cell growth at 0.01 uM incubated for 48 hrs by sulforhodamine B assay relative to control; format: functional; details: OVCAR-4, 48 h, read-out: Activity
[9] = system: HL-60(TB); assay: Growth inhibition of human HL-60(TB) cells assessed as cell growth at 0.1 uM incubated for 48 hrs by sulforhodamine B assay relative to control; format: functional; details: HL-60, 48 h, read-out: Activity
[10] = system: NCI-H226; assay: Growth inhibition of human NCI-H226 cells assessed as cell growth at 0.1 uM incubated for 48 hrs by sulforhodamine B assay relative to control; format: functional; details: NCI-H226, 48 h, read-out: Activity
[11] = system: NCI-H522; assay: Growth inhibition of human NCI-H522 cells assessed as cell growth at 0.1 uM incubated for 48 hrs by sulforhodamine B assay relative to control; format: functional; details: NCI-H522, 48 h, read-out: Activity
[12] = system: HT-29; assay: Growth inhibition of human HT-29 cells assessed as cell growth at 0.1 uM incubated for 48 hrs by sulforhodamine B assay relative to control; format: functional; details: HT-29, 48 h, read-out: Activity
[13] = system: M14; assay: Growth inhibition of human M14 cells assessed as cell growth at 0.1 uM incubated for 48 hrs by sulforhodamine B assay relative to control; format: functional; details: M14, 48 h, read-out: Activity
[14] = system: MDA-MB-231; assay: Growth inhibition of human MDA-MB-231 cells assessed as cell growth at 0.1 uM incubated for 48 hrs by sulforhodamine B assay relative to control; format: functional; details: MDA-MB-231, 48 h, read-out: Activity
[15] = system: MDA-MB-468; assay: Growth inhibition of human MDA-MB-468 cells assessed as cell growth at 0.1 uM incubated for 48 hrs by sulforhodamine B assay relative to control; format: functional; details: MDA-MB-468, 48 h, read-out: Activity
[16] = system: MOLT-4; assay: Growth inhibition of human MOLT4 cells assessed as cell growth at 1 uM incubated for 48 hrs by sulforhodamine B assay relative to control; format: functional; details: MOLT-4, 48 h, read-out: Activity
[17] = system: A549; assay: Growth inhibition of human A549/ATCC cells assessed as cell growth at 1 uM incubated for 48 hrs by sulforhodamine B assay relative to control; format: functional; details: A549, 48 h, read-out: Activity
[18] = system: SNB-75; assay: Growth inhibition of human SNB75 cells assessed as cell growth at 1 uM incubated for 48 hrs by sulforhodamine B assay relative to control; format: functional; details: SNB-75, 48 h, read-out: Activity
[19] = system: U-251; assay: Growth inhibition of human U251 cells assessed as cell growth at 1 uM incubated for 48 hrs by sulforhodamine B assay relative to control; format: functional; details: U-251, 48 h, read-out: Activity
[20] = system: LOX IMVI; assay: Growth inhibition of human LOXIMVI cells assessed as cell growth at 1 uM incubated for 48 hrs by sulforhodamine B assay relative to control; format: functional; details: read-out: Activity
[21] = system: OVCAR-4; assay: Growth inhibition of human OVCAR4 cells assessed as cell growth at 1 uM incubated for 48 hrs by sulforhodamine B assay relative to control; format: functional; details: OVCAR-4, 48 h, read-out: Activity
[22] = system: MCF7; assay: Growth inhibition of human MCF7 cells assessed as cell growth at 1 uM incubated for 48 hrs by sulforhodamine B assay relative to control; format: functional; details: MCF7, 48 h, read-out: Activity
[23] = system: MOLT-4; assay: Growth inhibition of human MOLT4 cells assessed as cell growth at 100 uM incubated for 48 hrs by sulforhodamine B assay relative to control; format: functional; details: MOLT-4, 48 h, read-out: Activity
[24] = system: SR; assay: Growth inhibition of human SR cells assessed as cell growth at 100 uM incubated for 48 hrs by sulforhodamine B assay relative to control; format: functional; details: read-out: Activity
[25] = system: NCI-H460; assay: Growth inhibition of human NCI-H460 cells assessed as cell growth at 100 uM incubated for 48 hrs by sulforhodamine B assay relative to control; format: functional; details: NCI-H460, 48 h, read-out: Activity
[26] = system: HCC 2998; assay: Growth inhibition of human HCC2998 cells assessed as cell growth at 100 uM incubated for 48 hrs by sulforhodamine B assay relative to control; format: functional; details: HCC 2998, 48 h, read-out: Activity
[27] = system: HCT-15; assay: Growth inhibition of human HCT15 cells assessed as cell growth at 100 uM incubated for 48 hrs by sulforhodamine B assay relative to control; format: functional; details: HCT-15, 48 h, read-out: Activity
[28] = system: UACC-62; assay: Growth inhibition of human UACC62 cells assessed as cell growth at 100 uM incubated for 48 hrs by sulforhodamine B assay relative to control; format: functional; details: UACC-62, 48 h, read-out: Activity
[29] = read-out: LC50 (the source's name)
[30] = read-out: pLC50 (the source's name) (converted)

Structure (SMILES): COc1cc(Cl)cc(-c2nn(-c3cccc(NC(=O)Nc4ccc(Cl)c(Cl)c4)c3)cc2-c2ccncc2)c1
- GI50 ([1]; read-out: GI50): 2 µM
- CC50 [1, 29]: > 100 µM
- TGI ([1]; read-out: TGI): 50 µM
- GI50 ([1]; read-out: pGI50 (converted)): 2 µM
- CC50 [1, 30]: > 100 µM
- TGI ([1]; read-out: pTGI (converted)): 6.03 µM
- GI50 ([2]; read-out: GI50): 1 µM
- LC50 ([2]; read-out: LC50): > 100 µM
- TGI ([2]; read-out: TGI): > 100 µM
- GI50 ([2]; read-out: pGI50 (converted)): 1.95 µM
- LC50 ([2]; read-out: pLC50 (converted)): > 100 µM
- TGI ([2]; read-out: pTGI (converted)): > 100 µM
- GI50 ([3]; read-out: GI50): 2.27 µM
- CC50 [3, 29]: > 100 µM
- TGI ([3]; read-out: TGI): 13.9 µM
- GI50 ([3]; read-out: pGI50 (converted)): 2.29 µM
- CC50 [3, 30]: > 100 µM
- TGI ([3]; read-out: pTGI (converted)): 13.8 µM
- GI50 ([4]; read-out: GI50): 2.02 µM
- CC50 [4, 29]: > 100 µM
- TGI ([4]; read-out: TGI): 10.8 µM
- GI50 ([4]; read-out: pGI50 (converted)): 2.04 µM
- CC50 [4, 30]: > 100 µM
- TGI ([4]; read-out: pTGI (converted)): 10.7 µM
- GI50 ([5]; read-out: GI50): 2.06 µM
- CC50 [5, 29]: > 100 µM
- TGI ([5]; read-out: TGI): 75.5 µM
- GI50 ([5]; read-out: pGI50 (converted)): 2.04 µM
- CC50 [5, 30]: > 100 µM
- TGI ([5]; read-out: pTGI (converted)): 7.94 µM
- IC50 [6]: 2.4 µM
- GI50 ([6]; read-out: GI50): 2.4 µM
- CC50 [6, 29]: > 100 µM
- TGI ([6]; read-out: TGI): 16.3 µM
- GI50 ([6]; read-out: pGI50 (converted)): 2.4 µM
- CC50 [6, 30]: > 100 µM
- TGI ([6]; read-out: pTGI (converted)): 16.2 µM
- IC50 [7]: 1.13 µM
- GI50 ([7]; read-out: GI50): 1.13 µM
- CC50 [7, 29]: > 100 µM
- TGI ([7]; read-out: TGI): 52.5 µM
- GI50 ([7]; read-out: pGI50 (converted)): 1.12 µM
- CC50 [7, 30]: > 100 µM
- TGI ([7]; read-out: pTGI (converted)): 5.25 µM
- growth at 0.01 µM [8]: 93%
- growth at 0.1 µM [9]: 93%
- growth at 0.1 µM [10]: 96%
- growth at 0.1 µM [11]: 53%
- growth at 0.1 µM [12]: 91%
- growth at 0.1 µM [13]: 100%
- growth at 0.1 µM [14]: 96%
- growth at 0.1 µM [15]: 97%
- growth at 1 µM [16]: 70%
- growth at 1 µM [17]: 82%
- growth at 1 µM [18]: 71%
- growth at 1 µM [19]: 71%
- growth at 1 µM [20]: 91%
- growth at 1 µM [21]: 83%
- growth at 1 µM [22]: 83%
- growth at 100 µM [23]: -7%
- growth at 100 µM [24]: -26%
- growth at 100 µM [25]: -8%
- growth at 100 µM [26]: -7%
- growth at 100 µM [27]: -9%
- growth at 100 µM [28]: -32%
